1 compound from ChEMBL document CHEMBL3832045, “DailyMed|setid=14ed9edd-bfd3-4fa4-9293-66666f779ba3 | TRIAMCINOLONE ACETONIDE - triamcinolone acetonide spray, metered|Physicians Total Care, Inc” can be followed below.

The structures appear in SMILES notation.

What all share (format): ADME, organism-based
A short description of series [1]: (§1) Pharmacokinetic parameters for triamcinolone acetonide evaluated after intranasal administration of triamcinolone acetonide nasal spray. To be noted: human, in vivo, inhaled or intranasal, dosed compound id 47, dosed compound name TRIAMCINOLONE ACETONIDE, regimen Single dose, tissue Plasma. Further details: dose 220 mcg, route intranasal, dose 110 to 440.
Series [2] deals with Homo sapiens. The series is described as §1. Further details: dose 220 mcg, route intranasal, dose 110 to 440. To be noted: in vivo, inhaled_or_intranasal, dose 220 mcg, dosed compound id 47, dosed compound name TRIAMCINOLONE ACETONIDE, regimen Single dose, route intranasal, tissue Plasma.
Series [3] in a line: Evaluation of pharmacokinetic parameters for triamcinolone acetonide following intravenous dosing of triamcinolone acetonide phosphate ester in adults. Conditions: human, in vivo, dosed compound id 470, dosed compound name TRIAMCINOLONE ACETONIDE PHOSPHATE ESTER, tissue Plasma.

Broadly, the Tmax is the time at which the peak concentration occurs. A word on the half-life: it is the time in which the quantity being followed falls by half. For orientation: Cmax means the peak of the concentration-time curve. The AUC is the area under the concentration-time curve, a measure of exposure. For orientation: Vd means a proportionality between amount in the body and measured concentration, not a real space. Low values mean confinement near the circulation, high ones extensive tissue distribution. A word on the clearance: it is the rate of elimination divided by the concentration. A high value points to a high capacity for elimination. Consider `CC1(C)O[C@@H]2C[C@H]3[C@@H]4CCC5=CC(=O)C=C[C@]5(C)[C@@]4(F)[C@@H](O)C[C@]3(C)[C@]2(C(=O)CO)O1` [TRIAMCINOLONE ACETONIDE], for which, in series [1] (dose 220 mcg, route intranasal), the Tmax was found to be 1.5 h and the half-life was 3.1 h. In series [1], this compound returned a Cmax of 0.5 ng/mL. In addition, the exposure (AUC) in series [1] (read-out: AUC(0 to inf)) was 1.4 to 4.7 ng·h/mL. The t1/2 in series [2] came to 3.1 h. In series [3], this compound had a volume of distribution (Vd) of 99.5 L, a clearance of 753 mL/min and a half-life of 1.47 h.
